Measured values: patent publication US11078232B2, “Preparation and use of molecular site targeted and activated kinase inhibitor” (Yafei Shanghai Biology Medicine Science & Technology Co. …, priority 2017, dated 2021)

How the values were obtained:
[1] = system: Tumor-associated macrophages (M2 type); assay: MTT toxicity on tumor-associated macrophages (M2 type); format: cell-based; conditions: 48 hours, pH 6.5, MTT, FIG. 7
Experimental: Tumor-associated macrophages (M2 type) induced by mononuclear bone marrow cells were collected by M-CSF (10 ng/ml), the cell suspension concentration was adjusted, 140 ul per well was added, and the cells were adjusted to a density of ˜3000 […]. 5% CO2, incubate at 37° C. overnight, until the cell monolayer is covered with the bottom of the well (96-well flat bottom plate), and then add a continuous concentration gradient to give different concentrations of the drug, the drug is set to 9 concentration gradients, 10 μl per well, set Three replicate wells; 5% CO2, incubated at 37° C., pH 6.5 for 48 hours, observed under an inverted microscope; 20 μl of MTT solution (5 mg/ml, i.e., 0.5% MTT) was added to each well and culture was continued for 4 h. The culture was terminated, and the culture solution in the well was carefully aspirated; 100 ul of dimethyl sulfoxide was added to each well, and shaken on a shaker at a low speed for 10 min to dissolve the crystals sufficiently. The absorbance of each well was measured at an enzyme-linked immunosorbent detector at OD490 nm. At the same time, zero adjustment holes (medium, MTT, dimethyl sulfoxide), control group (cell, same concentration of drug dissolution medium, medium, MTT, dimethyl sulfoxide) were set. The toxicity of the compound to tumor-associated macrophages (M2 type) was analyzed after the test. The inhibition of tumor-associated macrophages (M2 type) by different drugs was compared. […] Compound a, sorafenib, is also toxic because it is not a targeted activating drug.

D121 lung cancer cells = assay: D121 lung cancer immunotherapy model; conditions: for Tumor inhibition rate/% (week 7) / CD8: CD45 (%): single agent; for Tumor inhibition rate/% (week 7): i.v. ⅙ MTD once a week for 4 weeks; for CD8: CD45 (%): tumor CD8+ T cells among CD45-positive cells
Experimental: (1) D121 lung cancer cells purchased from ATCC were cultured in DMEM medium containing 10% fetal bovine serum at 37° C. and 5% CO2, and the cells were digested with EDTA trypsin according to routine use, and passed two to three times a week for placement.
(2) Animals: C57 BALB/C mice, 6-8 weeks old, female, weighing about 18-22 g, purchased from Shanghai SLAC Laboratory Animal Co., Ltd.
3) Immunization: Mice were intraperitoneally injected with 100 μL of 5×10^5 D121 lung cancer cells that died by repeated freeze-thaw cycles, and immunized 3 times with an interval of 2 weeks.
4) Cell seeding: Collect the tumor cells in logarithmic growth phase, adjust the D121 cell concentration to (1×10^7/ml) with DMEM basal medium, 0.1 ml of the cell suspension was inoculated to the right side of each mouse subcutaneously with a 1 ml syringe. […] Tumor volume was observed and measured, and the average tumor volume reached 100-200 mm^3 about 7 days after inoculation, that is, tumor cell-bearing mice were grouped and administered. The immunized group in Table 9 was immunized with D121 lung cancer cells, and the D121 dead tumor cell immunized group was injected with physiological saline as a control.
The immunosuppressive regulatory point protein Anti-PD-L1 antibody was injected twice a week. A total of two weeks.
6) Experimental observation: During the whole experiment, the use and observation of experimental animals were carried out in accordance with the regulations of AAALAC. The experimental animals were observed daily after inoculation of tumor cells, and their onset and death were recorded. During the routine experiment, all experimental animals were monitored and recorded for behavior, feeding, water intake, weight change, hair shine and other abnormalities.
(7) Analysis of tumor CD8+ T cells (T lymphocyte subsets). Tumor tissues were ground and single cancer cells were isolated by filtration using 40 μm Nylon cell strainer, lysed twice with blood cell lysis buffer for 20 min, washed twice with 1% BSA-PBS buffer, centrifuged, and resuspended, and then the cells were counted again. 1×10^5 cells were incubated with leukocyte co-antigen CD45-PE and CD8-FITC-labeled antibody for 1 hour at room temperature in the dark, and then analyzed the proportion of T lymphocyte antigen (CD8) in leukocyte common antigen (CD45)-positive cells by flow cytometry.

CT26 tumor cells [2] = assay: CT26 immunotherapy model (Example 15); format: in vivo, mice; conditions: for Cure rate % / Number of cures: 10 in each group; for Tumor inhibition rate % (Day 42): IV ⅓ MTD once a week, 6 weeks; for Recurrence rate % (Week 7): cured mice re-inoculated with CT26 cells after 50 days
Experimental: (§1) 1) CT26 tumor cells were purchased from ATCC, and the cells were cultured using a 10% fetal bovine serum DMEM medium at 37° C., 5% CO2. The cells were passaged every 3 days and the cells were used within 15 generations.
(§2) 2) Tumor production: 10^6 live CT26 tumor cells were injected subcutaneously into the back of tumor-immunized […], and treatment was started when the tumor grew to about 0.3-0.4 cm. The tumor size (mm^3) of the mice was recorded and compared with the solvent control group. The tumor inhibition rate on day 42 was calculated in the solvent control group.
(§3) 3) Treatment process: IV injection is used, and the drug is used at a dose of ⅓ MTD once a week Immunosuppressive IV injection treatment once a week for a total of 6 weeks of treatment.
(§4) 4) The cure rate of 10 in each group was counted. After 50 days, the cured mice and wild groups were inoculated […] to detect recurrence.

Heg2 cells = assay: MTT cytotoxicity on Heg2 cells; format: cell-based; conditions: FIG. 3; for toxicity to Heg2 cells: 48 hours, pH 6.5, MTT; for inhibition of cancer cells versus positive controls: cell viability experiments
Experimental: Collect logarithmic Heg2 cells, adjust the cell suspension concentration, add 140 ul per well, and plate to adjust the density of the cells to be tested ˜5000/well; 5% CO2, incubate at 37° C. overnight, until the cell monolayer is covered with the bottom of the well (96) Condensate bottom plate), adding continuous concentration gradient to give different concentrations of compound S1, compound a and sorafenib, the drug set 9 concentration gradients, 10 ul per well, set 3 duplicate wells; 5% CO2, 37° C. PH6 0.5 incubation for 48 hours, observed under an inverted microscope; 20 μl of MTT solution (5 mg/ml, i.e. 0.5% MTT) was added to each well and incubation was continued for 4 h. The culture was terminated, and the culture solution in the well was carefully aspirated; 100 ul of dimethyl sulfoxide was added to each well, and shaken on a shaker at a low speed for 10 min to dissolve the crystals sufficiently. The absorbance of each well was measured at an enzyme-linked immunosorbent detector at OD490 nm. At the same time, zero adjustment holes (medium, MTT, dimethyl sulfoxide), control group (cell, same concentration of drug dissolution medium, medium, MTT, dimethyl sulfoxide) were set.

[3] = Solid stability, 60° C. for 10 days in the dark (HPLC); format: physicochemical; conditions: solid, 60° C., 10 days, dark; for Stability(%): content versus time 0
Experimental: The test was carried out by leaving it at 60° C. for 10 days in the dark. The ratio of the change in the content of the compound to the compound at time 0 was measured by HPLC, and the stability value (%) was calculated.

[4] = Drug content in tumor tissue homogenate (HPLC); format: in vivo; conditions: 10 micromoles per kilogram intravenous, tumor-bearing mice, FIG. 4
Experimental: Intravenous injection of 10 micromoles per kilogram of the drug into tumor-bearing mice, surgically obtained tumor tissue homogenate, and the drug content was determined by the HPLC method.

aspartic endopeptidase = target: T1, aspartic endopeptidase (Homo sapiens, UniProt Q99538); assay: Activation efficiency by aspartic endopeptidase (HPLC); format: biochemical; conditions: 1 mg/ml compound, enzyme 1 μmol/L, pH 6.0, 37° C., 2 hours; ratio of released product to original compound
T1 sequence (Q99538 18-323): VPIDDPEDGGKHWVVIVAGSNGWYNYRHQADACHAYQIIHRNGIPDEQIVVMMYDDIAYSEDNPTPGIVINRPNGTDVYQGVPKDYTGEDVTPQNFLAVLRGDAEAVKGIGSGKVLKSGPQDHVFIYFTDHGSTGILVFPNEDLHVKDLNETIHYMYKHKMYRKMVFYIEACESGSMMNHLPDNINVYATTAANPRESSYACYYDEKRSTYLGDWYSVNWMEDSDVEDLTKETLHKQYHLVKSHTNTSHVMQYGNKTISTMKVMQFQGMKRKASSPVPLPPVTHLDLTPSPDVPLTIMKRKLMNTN
Experimental: The sample compound and a portion of the control compound (herein, all of the control compounds can be synthesized by a method similar to that described in Examples 1-3) were uniformly diluted 10-fold to 1 mg/ml with the enzyme-digesting solution. In this experiment, 1 mg/ml of the sample compound was added to the aspartic endopeptidase (1 μmol/L, pH 6.0) at 37° C. for 2 hours. After the reaction, the enzyme digest was able to release the enzyme-digested product. The decrease in the compound and the increase in the product were examined by HPLC to compare the enzyme activation efficiency (the ratio of the product released by the enzyme cleavage to the original compound).

[5] = MTD (maximum tolerated dose) acute toxicity in mice; format: in vivo, mouse; conditions: female, mouse, in vivo; BALB/C mice, intravenous, observed 17 days
From the text: (§5) Test purpose: to investigate the acute toxicity of highly activated compounds by targeted site molecules of the invention by measuring the MTD (maximum tolerated dose) experiment in mice.
(§6) The injections of each drug and the control drug were uniformly dissolved using water for injection, and diluted to the corresponding dose with physiological saline during the test.
(§7) Methods and results: […] BALB/C mice, weighing 19-21 g, were randomly divided into 10 groups, with 10 mice in each group. […] A control test of the saline group and the adriamycin group injection (commercially available, Beijing Yue kang) was carried out, and the injection volume of each mouse was 0.2 ml. […] On the D3, D5, and D14, blood samples were taken for whole blood count.

BALB/C mouse = assay: as above; format: in vivo; conditions: intravenous; for Number of deaths: 10 mice per group; for Death dose: observed 17 days
From the text: as §5, §6, §7

[6] = Tumor tissue distribution by autofluorescence after intravenous injection; format: in vivo; conditions: 10 μmol/kg intravenously, after 12 hours, FIG. 2
Experimental: Since DOX, Succinyl-AANL-DOX and S3 have autofluorescence, they can be detected by fluorescence microscopy in tumor tissues. 10 μmol/kg of DOX, Succinyl-AANL-DOX and S3 were injected intravenously. After 12 hours, the drug distribution image of the tumor tissue sections and the fluorescence intensity of the tumor tissue homogenate were measured. Nuclear staining was performed using DAPI.

CT26 tumor cells [7] = assay: CT26 treatment model (Example 17); format: in vivo, mice; conditions: CT26 model as in Example 15
Experimental: as §1, §2, §3, §4
The CT26 immunotherapy model was constructed as in Example 15, and the pharmacodynamic and immunotherapeutic effects of the compounds S4-S6, S9-S12 and S15-S18 in the CT26 treatment model were tested.

[8] = Stability of sorafenib derivatives in buffer systems; format: physicochemical; conditions: weak acid, weak base and neutral buffer
From the text: In order to solve this dilemma, the present invention performs allosteric synthesis and screening of the ortho-carboxamide group of the pyridine ring in the sorafenib molecule, and obtains a special compound which satisfies both the structure-activity relationship and the release effect. That is, compound a and compound b).

SMILES	toxicity to / activation by tumor-associated macrophages (M2 type) [1]	Tumor inhibition rate/% (week 7) (D121 lung cancer cells)	CD8: CD45 (%) (D121 lung cancer cells; flow cytometry)	Cure rate % (CT26 tumor cells [2])	Number of cures (CT26 tumor cells [2])	Tumor inhibition rate % (Day 42) (CT26 tumor cells [2])	Recurrence rate % (Week 7) (CT26 tumor cells [2])	toxicity to Heg2 cells (Heg2 cells)	Stability verdict (stable / unstable) [3]	Stability(%) [3]	drug distribution in the tumor [4]	Activation efficiencies (%) (aspartic endopeptidase)	MTD at 17 days [5]	Number of deaths (BALB/C mouse)	Death dose (BALB/C mouse)	stability in buffer systems [8]	inhibition of cancer cells versus positive controls (Heg2 cells)	also measured
CC(NC(=O)C(C)NC(=O)[C@H](O)[C@H](O)[C@@H](O[C@@H]1O[C@H](CO)[C@H](O)[C@H](O)[C@H]1O)[C@H](O)CO)C(=O)NC(CC(N)=O)C(=O)Nc1ccc(COC(=O)N(C)CCNC(=O)c2cc(Oc3ccc(NC(=O)Nc4ccc(Cl)c(C(F)(F)F)c4)cc3)ccn2)cc1 (stereo partly drawn) [Compound S1, Lacto-AAN-PABC-compound a]	more susceptible to phagocytosis and activation by macrophages than other methods of linker	53.4%	11.0%	40%	4	94.7%	0%	non-toxic to normal cells	stable	96.7%	multiplied in the distribution of sorafenib in the tumor	86.7%	300 mg/kg	1	350 mg/kg			
COc1cccc2c1C(=O)c1c(O)c3c(c(O)c1C2=O)C[C@](O)(C(=O)CO)CC3OC1C[C@H](NC(=O)OCc2ccc(NC(=O)C(CC(N)=O)NC(=O)C(C)NC(=O)C(C)NC(=O)[C@H](O)[C@H](O)[C@@H](O[C@@H]3O[C@H](CO)[C@H](O)[C@H](O)[C@H]3O)[C@H](O)CO)cc2)[C@H](O)[C@H](C)O1 (stereo partly drawn) [Compound S3, Lacto-AAN-PABC-Adriamycin]		62.5%	14.6%	80%	8	82.5%	0%		stable	99.8%	increasing the distribution in the tumor compared to C11	82.6%	100 mg/kg	1	110 mg/kg			tumor tissue distribution and penetration [6]: more tumor tissue distribution and penetration after intravenous injection than Succinyl-AANL-DOX
CNC(=O)c1cc(Oc2ccc(NC(=O)Nc3ccc(Cl)c(C(F)(F)F)c3)cc2)ccn1 [Sorafenib, reference compound]	also toxic	24.5%	6.4%										11 mg/kg	0	12 mg/kg			effect on T cells (D121 lung cancer cells; flow cytometry, discussion of Table 6): inhibited T cells; CD8: CD45 (%) (CT26 tumor cells [7]): 7.2%; Number of animals cured (CT26 tumor cells [7]): 0; Tumor inhibition rate/% (at week 7) (CT26 tumor cells [7]): 15.7%
CNCCNC(=O)c1cc(Oc2ccc(NC(=O)Nc3ccc(Cl)c(C(F)(F)F)c3)cc2)ccn1 [compound a]	also toxic							more toxic than sorafenib								stable in weak acid, weak base and neutral buffer system, did not degrade	inhibited cancer cells better than the positive control drugs sorafenib and regorafenib	
CNCCNC(=O)c1cc(Oc2ccc(NC(=O)Nc3ccc(Cl)c(C(F)(F)F)c3)c(F)c2)ccn1 [compound b]																stable in weak acid, weak base and neutral buffer system, did not degrade	inhibited cancer cells better than the positive control drugs sorafenib and regorafenib	
